One block for each compound: values may come before it.
Assays:
NAALADase = target: T1, NAALADase (Homo sapiens, UniProt Q04609); assay: In vitro inhibition of NAALADase activity; type: biochemical; conditions: average IC50 values
T1 construct: from tissue; host or cells: unspecified "tissue"
Method: Various compounds of the invention were tested for in vitro inhibition of NAALADase activity.
The following were combined in assay tubes: 100 μL of 10 mM CoCl2, 250 μof 200 mM Tris chloride, 100 μL tissue, 100 μL of 10 mM NAALADase inhibitor in Bakers H2O, and Bakers H2O to make a total volume of 950 μL. Each assay tube was then incubated for 10 minutes in a 37 EC water bath. […] The assay was stopped by adding 1.0 ml of 0.1 M sodium phosphate.
Glutamate released by the action of the NAALADase enzyme was separated from the assay solution using an anion exchange resin. The resin was equilibrated to 25 EC, 2.0 ml of the resin was added to a Pasteur pipette pre-loaded with a single glass bead, and each column was washed twice with distilled H2O. A column was placed over a scintillation vial and 200 μL of an assay sample was loaded onto the column. After draining, glutamate was eluted using two 1.0 ml washes of 1 M formic acid. After addition of 10 ml of scintillation cocktail, each sample was counted for 2 minutes on a scintillation counter.

STZ-diabetic rats [1] = assay: Neuropathic pain in STZ model (thermal withdrawal latency); type: in vivo, rat; conditions: 10 mg/kg i.p. daily, treatment from 45 days post STZ
Method: Male Sprague-Dawley rats (200–225 g) were rendered diabetic by intravenous administration of streptozotocin (“STZ”, 70 mg/kg in phosphate buffered saline). Diabetic animals were divided into five groups: one group receiving Compound A (10 mg/kg or 1 mg/kg), Compound D (10 mg/kg or 1 mg/kg) or vehicle. Another group of animals (non-STZ treated) served as non-diabetic controls. Drug/vehicle treatment was started in diabetic animals 45 days post-STZ administration. STZ-induced diabetic rats were tested for sensitivity to a heat source as soon as blood glucose levels rose to 320 mg/dl or above (30 days post STZ). The rats were then acclimated to a Hargreaves apparatus and thermal nociception was monitored using an infrared heat source directed into the dorsal surface of the hindpaw, and the time taken for the animal to remove its paw noted to the nearest 0.1 seconds (see Hargreaves et al., supra, for detailed experimental method). The intensity of the beam source was adjusted such that the mean latency for control animals (non-STZ treated) was approximately 10 seconds. Each animal was tested 8 times and the mean difference score (between mean non-diabetic control latency and mean diabetic latency) are graphically presented in FIGS. 7A and 7B.

BB/W diabetic rats = assay: Progression of neuropathic pain and nerve conduction deficits in BB/W model; type: in vivo, rat
Description: Male BB/W rats (BRI, Mass) spontaneously develop a cell mediated autoimmune destruction of pancreatic B cells, resulting in onset of insulin-dependent (Type I) diabetes (Guberski 1994). […] This renders them valuable for experimental trials of new compounds for future treatments of this major disorder. In the present study, Compound D and Compound A were examined for their ability to alter the progression of diabetic neuropathy. The rats received daily injection of Compound D or Compound A (10 mg/kg i.p.) or vehicle, starting at the onset of diabetes (hyperglycemia) and up to 6 months thereafter. Another group of non-diabetic rats also receiving vehicle were tested. All animals were continuously monitored for body weight, urine volume, blood sugar and glycated haemoglobin. In the first month of the study, all animals were tested for thermal nociception in a Hargreaves apparatus, weekly. After the first month this was done biweekly and then monthly. The testing consists of directing an infrared heat source onto the dorsal surface of the rat hindpaw and noting the time taken for the animal to remove its paw (see Hargreaves et al., supra, for a description of the experimental method). Each animal was tested 8 times and the mean withdrawal latency noted.
Nerve conduction velocity was also measured every two weeks through the first eight weeks of treatment and every month thereafter through to the six months of treatment (see De Koning et al., Peptides, Vol. 8, No. 3, pp. 415–22 (1987) for a description of the experimental method). […] This was apparent starting at 8 weeks of treatment and persisted to a similar degree through to the six month termination point of the study.

STZ-diabetic rats [2] = assay: Diabetic neuropathy in STZ model (nerve conduction velocity); type: in vivo, rat
Method: Motor and sensory nerve conduction velocity was also measured in STZ-diabetic animals after 4, 8 and 12 weeks of treatment (see De Koning et al., supra, for a description of the experimental method). Briefly, stimulating needle electrodes were inserted close to the sciatic and tibial nerves with recording electrodes being placed subcutaneously over the distal foot muscles, in anesthetized rats.

STZ-diabetic rats [3] = assay: Reversal of diabetic neuropathy in STZ model, delayed dosing; type: in vivo, rat; conditions: for neuropathic hyperalgesia / motor nerve conduction velocity: daily p.o.; for neuropathic hyperalgesia: treatment from 5 weeks post STZ, within two weeks of treatment; for motor nerve conduction velocity: within 8 weeks of dosing, persisted through 12 weeks
Method: Rats (200–225 grams) were injected with STZ (70 mg/kg) into the tail vein. Diabetes (>350 mg/dl) was confirmed in all rats, 4 weeks after STZ administration. Rats were left untreated until 35–49 days after STZ. Compound D (1, 3, or 10 mg/kg), Compound E (10 mg/kg), or vehicle were dosed daily p.o. following confirmation of hyperalgesia and/or nerve conduction velocity deficits. In separate experiments, onset of treatment was delayed until 60 to 90 days after STZ administration. Nerve conduction velocity or withdrawal response to thermal stimulation of hind paws was measured at intervals, usually bi-weekly for thermal response and monthly for nerve conduction velocity.
Sensory and motor nerve conduction velocities were evaluated using the method of De Koning and Gispen (Peptides 8: 415–422, 1987). Electrophysiological evaluation was carried out within one hour of dosing. Animals were anesthetized with isoflurane and stimulating needle electrodes were inserted close to the sciatic nerve at the sciatic notch and the tibial nerve near the ankle. Recording electrodes were placed over the foot muscles. Stimuli were applied and responses recorded. Motor and sensory nerve conduction velocities were calculated by measuring the distance between the sciatic notch and ankle sites, and the latency between the M-wave and the H-reflex.
Animals were acclimated to the apparatus for at least 5 min. An infra-red source was placed under below the plantar surface of the rat hind-paw. The intensity of the source was adjusted so that latency for normal rats was about 10 secs. Animals were tested for thermal response latency according to the method of Hargreaves et al (Pain 77–88, 1988). Each animal was tested 8 times (4 each hind limb) and the latency of response recorded automatically to nearest 0.1 sec. An average of the last 4 measurements for each paw was calculated (8 total measurements) and noted for each rat.

T1 sequence (Q04609 whole entry): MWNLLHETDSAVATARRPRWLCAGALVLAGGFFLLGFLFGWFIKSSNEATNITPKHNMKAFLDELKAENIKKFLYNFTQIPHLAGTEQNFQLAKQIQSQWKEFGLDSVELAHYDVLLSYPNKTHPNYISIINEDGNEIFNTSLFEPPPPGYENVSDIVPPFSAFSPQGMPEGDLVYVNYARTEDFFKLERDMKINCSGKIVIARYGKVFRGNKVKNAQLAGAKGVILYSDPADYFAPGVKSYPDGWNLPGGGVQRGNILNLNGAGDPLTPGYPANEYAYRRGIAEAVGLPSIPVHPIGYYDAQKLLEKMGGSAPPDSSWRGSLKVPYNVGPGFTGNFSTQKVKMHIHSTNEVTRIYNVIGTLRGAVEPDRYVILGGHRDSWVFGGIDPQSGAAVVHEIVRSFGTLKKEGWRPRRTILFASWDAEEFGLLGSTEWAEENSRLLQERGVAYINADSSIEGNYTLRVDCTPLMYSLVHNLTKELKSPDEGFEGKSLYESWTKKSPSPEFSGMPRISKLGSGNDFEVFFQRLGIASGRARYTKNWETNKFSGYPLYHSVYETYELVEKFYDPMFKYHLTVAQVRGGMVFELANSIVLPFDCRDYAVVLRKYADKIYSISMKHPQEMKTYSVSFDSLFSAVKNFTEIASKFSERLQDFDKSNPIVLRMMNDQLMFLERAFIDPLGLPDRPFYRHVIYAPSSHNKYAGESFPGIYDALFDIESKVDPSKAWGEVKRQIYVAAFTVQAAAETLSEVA

SMILES: O=C(O)CCC(CCS)C(=O)O (stereo not shown) [Compound D, 2-(2-sulfanylethyl)-pentanedioic acid]
hyperalgesic response (withdrawal latency difference score) (STZ-diabetic rats [1]): completely reversed | nerve conduction velocity deficits versus diabetic vehicle controls (BB/W diabetic rats; 10 mg/kg daily, from 8 weeks to six months): significantly less severe nerve conduction deficits | withdrawal latency versus diabetic vehicle-treated rats (BB/W diabetic rats; 10 mg/kg i.p. daily, from 4 weeks through six months of treatment): longer withdrawal latencies | motor and sensory nerve conduction velocities (STZ-diabetic rats [2]; 1 mg/kg): increased | motor and sensory nerve conduction velocities (STZ-diabetic rats [2]; 10 mg/kg daily, 4, 8 and 12 weeks): increased | sensory and motor nerve conduction velocity deficits (STZ-diabetic rats [3]; STZ rats untreated until 60 days after STZ, external CRO): Partial reversal | neuropathic pain abnormalities (STZ-diabetic rats [3]; STZ rats, 1 and 3 mg/kg, treatment from 7 weeks post STZ): Significant reduction | motor nerve conduction (STZ-diabetic rats [3]; STZ rats, 1 and 3 mg/kg, treatment from 7 weeks post STZ, 8 weeks after dosing): remained unimproved | sensory nerve conduction (STZ-diabetic rats [3]; STZ rats, 1 and 3 mg/kg, treatment from 7 weeks post STZ, within 4 weeks of treatment): significantly improved towards normal | neuropathic hyperalgesia (STZ-diabetic rats [3]; STZ rats): reversed towards normal | motor nerve conduction velocity (STZ-diabetic rats [3]; STZ rats): reversed the motor nerve conduction velocity towards normal

SMILES: O=C(O)c1cccc(Cn2c(C(=O)O)c(CCS)c3ccccc32)c1 [Compound 3, 1-[(3-carboxyphenyl)methyl]-3-(2-mercaptoethyl)-1H-indole-2-carboxylic acid]
IC50 (NAALADase): 55.3 nM

SMILES: O=C(O)c1ccc(Br)c(Cn2c(C(=O)O)c(CCS)c3ccccc32)c1 [Compound 4, 1-[(2-bromo-5-carboxyphenyl)methyl]-3-(2-mercaptoethyl)-1H-indole-2-carboxylic acid]
IC50 (NAALADase): 54.3 nM

SMILES: O=C(O)c1[nH]c2ccccc2c1CCS [Compound 1, 3-(2-mercaptoethyl)-1H-indole-2-carboxylic acid]
IC50 (NAALADase): 1240 nM

SMILES: O=C(O)c1ccc(Cn2c(C(=O)O)c(CCS)c3ccccc32)cc1 [Compound 5, 1-[(4-carboxyphenyl)methyl]-3-(2-mercaptoethyl)-1H-indole-2-carboxylic acid]
IC50 (NAALADase): 66.5 nM

SMILES: O=C(O)c1[nH]c2c(C(=O)O)cccc2c1CCS [Compound 2, 3-(2-mercaptoethyl)-1H-indole-2,7-dicarboxylic acid]
IC50 (NAALADase): 760 nM

SMILES: O=C(O)c1cccc(CC(CCCS)C(=O)O)c1 (stereo not drawn) [Compound E, 3-carboxy-alpha-(3-mercaptopropyl)benzenepropanoic acid]
neuropathic hyperalgesia (STZ-diabetic rats [3]; STZ rats): reversed towards normal | motor nerve conduction velocity (STZ-diabetic rats [3]; STZ rats): reversed the motor nerve conduction velocity towards normal

The next lines start with the values.

IC50 (NAALADase): 35 nM
SMILES: CC(C)(C)c1cc(Cn2c(C(=O)O)c(CCS)c3ccccc32)cc(C(=O)O)c1 [Compound 8, 1-[[3-carboxy-5-(1,1-dimethylethyl)-phenyl]methyl]-3-(2-mercaptoethyl)-1H-indole-2-carboxylic acid]

IC50 (NAALADase): 12100 nM
SMILES: O=C(O)c1c(CCS)c2ccccc2n1Cc1ccccc1 [Compound 6, 3-(2-mercaptoethyl)-1-(phenylmethyl)-1H-indole-2-carboxylic acid]

IC50 (NAALADase): 104 nM
SMILES: O=C(O)c1cc(Cn2c(C(=O)O)c(CCS)c3ccccc32)ccc1Br [Compound 9, 1-[(4-bromo-3-carboxyphenyl)methyl]-3-(2-mercaptoethyl)-1H-indole-2-carboxylic acid]

IC50 (NAALADase): 44000 nM
SMILES: O=C(O)c1c(CCS)c2ccccc2n1CCc1ccccc1 [Compound 12, 3-(2-mercaptoethyl)-1-(2-phenylethyl)-1H-indole-2-carboxylic acid]

IC50 (NAALADase): 4740 nM
SMILES: O=C(O)c1c(CCS)c2ccccc2n1-c1ccccc1 [Compound 11, 3-(2-mercaptoethyl)-1-phenyl-1H-indole-2-carboxylic acid]

IC50 (NAALADase): 12 nM
SMILES: COc1ccc(C(=O)O)c(Cn2c(C(=O)O)c(CCS)c3ccccc32)c1 [Compound 10, 1-[(2-carboxy-5-methoxyphenyl)methyl]-3-(2-mercaptoethyl)-1H-indole-2-carboxylic acid]

IC50 (NAALADase): 18.5 nM
SMILES: O=C(O)c1ccccc1Cn1c(C(=O)O)c(CCS)c2ccccc21 [Compound 7, 1-[(2-carboxyphenyl)methyl]-3-(2-mercaptoethyl)-1H-indole-2-carboxylic acid]

— patent publication US7148250B2, “Indoles as NAALADase inhibitors” (Guilford Pharmaceuticals Inc., priority 2001, dated 2006)
